Where two headings read alike, the source gives them in different places.
Tests used:
[1] = biological target: T1, ATF6 (Homo sapiens, UniProt P18850); experiment: ERSE ATF6-luciferase assay in absence of ER stress (U2-OS ATF6 TRE-luciferase reporter cells); type: cell-based; details: normalized to maximal activation with Tg; for activation at 1 µM / activation at 10 µM: U2OS, 8 h; for activation at 10 µM / ATF6 activity @ 10 μM - No Tg [%]: 10 μM test compound; for ATF6 activity @ 1 μM-No Tg [%] / ATF6 activity @ 10 μM - No Tg [%]: Table 3-3
T1 construct: endogenous in cells; host or cells: U2-OS (ATCC HTB-96) stably transduced with the Cignal Lenti ATF6 luc reporter (Qiagen #CLS-6031L)
T1 sequence (P18850 1-670): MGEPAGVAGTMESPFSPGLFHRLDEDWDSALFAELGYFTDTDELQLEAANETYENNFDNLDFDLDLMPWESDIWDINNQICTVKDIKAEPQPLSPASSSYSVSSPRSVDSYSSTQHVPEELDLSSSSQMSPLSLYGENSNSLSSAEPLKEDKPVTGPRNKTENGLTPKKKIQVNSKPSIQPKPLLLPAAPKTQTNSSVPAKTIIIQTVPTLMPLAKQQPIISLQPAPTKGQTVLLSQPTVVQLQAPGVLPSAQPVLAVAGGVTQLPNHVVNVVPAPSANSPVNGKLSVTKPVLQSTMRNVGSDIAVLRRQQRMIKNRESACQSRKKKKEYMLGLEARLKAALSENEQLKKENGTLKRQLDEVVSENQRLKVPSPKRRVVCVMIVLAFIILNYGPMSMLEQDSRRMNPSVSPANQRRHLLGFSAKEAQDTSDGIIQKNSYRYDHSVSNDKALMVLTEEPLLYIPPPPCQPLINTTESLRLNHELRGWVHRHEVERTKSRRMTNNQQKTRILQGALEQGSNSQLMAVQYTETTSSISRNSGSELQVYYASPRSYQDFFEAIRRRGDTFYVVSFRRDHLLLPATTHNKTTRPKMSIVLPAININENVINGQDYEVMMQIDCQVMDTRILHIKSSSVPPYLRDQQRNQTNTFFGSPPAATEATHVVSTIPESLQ
Experimental: (§1) To understand how exemplary compounds of the invention modulate the activity of ATF6 in absence or presence of endoplasmic reticulum (ER) stress, a Human bone osteosarcoma (U2-OS)-based TRE-luciferase reporter stable cell line was generated to determine the modulation of transcription of ATF6 target genes.
(§2) U2-OS cells were obtained from the American Type Culture Collection (ATCC HTB-96, ATCC Manassas, VA) and were cultured with growing medium containing Dulbecco's Modified Eagle's Medium (DMEM) (Cat. No.: SH30023.02, HyClone) supplemented with fetal bovine serum (FBS) 10% (Cat. No.: 16000044, Gibco) and 1% penicillin-streptomycin antibiotic cocktail (Cat. No.: SV30010, Hyclone).
(§3) Cignal Lenti ATF6 luc reporter (Qiagen #CLS-6031L) was used to produce a stable cell line in U2-OS cells (U2-OS ATF6 TRE-luciferase reporter). The lenti ATF6 reporter is a preparation of replication incompetent, VSV-g pseudotyped lentivirus particles expressing the firefly luciferase gene under the control of a minimal (m)CMV promoter and tandem repeats of the ATF6 transcriptional response element (TRE). The number of response elements as well as the intervening sequence between response elements has been experimentally optimized to maximize the signal to noise ratio.
(§4) Exemplary compounds of the invention and reference compounds were prepared from powder as 10 mM stock solutions in dimethyl sulfoxide (DMSO; Cat. No. #D2650, Sigma Aldrich) and stored at −80° C. in presence of N2 neutral atmosphere.
(§5) For the primary screening, 40,000 U2-OS ATF6 TRE-luciferase reporter cells were plated in poly-D-lysine (Cat. No.: P2636, Sigma) pre-coated white 96-well plates (Thermo Scientific Nunc #136101) with 100 μL of growing medium. Cells were incubated in humidified chambers for 24 hr.
For testing exemplary compounds in absence of ER-stress, cells were treated for 8 hr with 100 μL growing medium containing either vehicle (DMSO), 1 or 10 μM test compound or 0.1 μM Tg. The final concentration of DMSO in each well was kept at 0.3%. Plates were incubated in humidified chambers.
After 8 hr of incubation, plates were cooled down to room temperature for 10 min prior to luciferase assays. Luciferase reactions were performed as above. Luminescence was read by integration of 1 s with a gain of 110 in a Synergy 4 Microplate reader. All measurements were carried out in triplicate.
The average activity determined from the wells containing vehicle only (DMSO, 0% of ATF6 activity) was used as blank and subtracted from the rest of measurements. The percentage of modulation of exemplary compound was calculated by normalizing values to potential maximal activation with Tg.
ATF6 activities of exemplary compounds at 1 and 10 μM in absence of Tg-induced ER stress in the U2-OS ATF6 TRE-luciferase reporter cells were determined and are shown in Table 3-2, and Table 3-3.

[2] = biological target: T1, ATF6; experiment: ERSE ATF6-luciferase assay in presence of Tg-induced ER stress (U2-OS ATF6 TRE-luciferase reporter cells); type: cell-based; details: in presence of ER stress (thapsigargin), Tg only = 100%; for ATF6 activity @ 1 μM [%] / activity at 1 µM: 1 μM test compound; for ATF6 activity @ 1 μM [%] / ATF6 activity @ 10 μM [%]: 8 hr; for activity at 10 µM / activity at 1 µM: U2OS, 8 h; for activity at 10 µM / ATF6 activity @ 10 μM [%]: 10 μM test compound
Experimental: as §1, §2, §3, §4, §5
For testing exemplary compounds in presence of ER-stress, cells were pre-treated for 30 min with 50 μL growing medium containing either vehicle (DMSO), 1 or 10 μM test compound. After this pre-incubation, 50 μL of a solution containing 0.2 μM of the ER stress-inducer thapsigargin (Tg) was added to the appropriate wells. The Tg solution also contains vehicle or test compounds at 1 or 10 μM as indicated. The final concentration of DMSO in each well was kept at 0.3%. Plates were incubated for 8 hr in humidified chambers.
After the 8 hr incubation, plates were cooled down to room temperature for 10 min prior to the luciferase assays. Luciferase reactions were performed using Luciferase Assay System (Cat. No.: E4550, Promega). Briefly, each well was washed with 100 μl of PBS 1× and, then, 20 μl of lysis reagent was added into each well. Plates were shaken for 10 min and, then, 50 μl of Luciferase Assay Reagent was added to each well. Luminescence was determined by integration of 1 s with a gain of 110 in a Synergy 4 Microplate reader. All measurements were carried out in triplicate.
The average activity determined from the wells containing vehicle only (DMSO, 0% of ATF6 activity) was used as blank and subtracted from the rest of measurements. The average activity determined from the wells containing Tg only was used as 100% of ATF6 activity. The percentage of modulation of exemplary compounds was calculated by normalizing values to potential maximal activation with Tg.
ATF6 activities of exemplary compounds at 1 and 10 μM in presence Tg-induced ER stress tested in the U2-OS ATF6 TRE-luciferase reporter cells were determined and are shown in Table 2-2 and Table 3-2.

[3] = 1 μM test compound, in absence of ER stress (no Tg), Table 3-3, read-out: ATF6 activity @ 1 μM-No Tg [%]
[4] = in absence of ER stress (no Tg), Table 3-3, read-out: ATF6 activity @ 10 μM - No Tg [%]
[5] = 1 μM test compound, in absence of ER stress (no Tg), 8 hr
[6] = in absence of ER stress (no Tg), 8 hr

Compound | activation at 1 µM [1, 3] [%] | ATF6 activity @ 1 μM [%] ([2]; Table 2-3) | activity at 10 µM ([2]; Table 2-3) [%] | ATF6 activity @ 1 μM-No Tg [%] [1, 5] | ATF6 activity @ 10 μM - No Tg [%] [1, 6] | ATF6 activity @ 10 μM [%] ([2]; Table 2-3) | other results
CC(C1CCCC1)n1cc(NC(=O)c2cc(-c3ccco3)on2)cn1 (single isomer, unassigned) [Compound 3-17, N-(1-(1-cyclopentylethyl)-1H-pyrazol-4-yl)-5-(furan-2-yl)isoxazole-3-carboxamide] | 0 to 25 | ++ (++ refers to 125% < % activity < 150% at 1 or 10 μM test compound) | 125 to 150 |  |  |  | activation at 10 µM [1, 4]: 0 to 25%
CC(C1CCCC1)n1cc(NC(=O)c2cc(-c3ccco3)on2)cn1 (single isomer, unassigned) [Compound 3-18, N-(1-(1-cyclopentylethyl)-1H-pyrazol-4-yl)-5-(furan-2-yl)isoxazole-3-carboxamide] |  | + (+ refers to 100% < % activity < 125% at 1 or 10 μM) |  | + (+ refers to 0% < % activity < 25% at 1 or 10 μM test compound) | + (+ refers to 0% < % activity < 25% at 1 or 10 μM test compound) | ++ (++ refers to 125% < % activity < 150% at 1 or 10 μM test compound) | 
O=C(Nc1cnn(C2CCOC2)c1)c1cc(-c2ccccn2)on1 (single isomer, unassigned) [Compound 3-20, 5-(pyridin-2-yl)-N-(1-(tetrahydrofuran-3-yl)-1H-pyrazol-4-yl)isoxazole-3-carboxamide] | 0 to 25 | + (+ refers to 100% < % activity < 125% at 1 or 10 μM) | > 150 |  | + (+ refers to 0% < % activity < 25% at 1 or 10 μM test compound) |  | 
O=C(Nc1cnn(C2CCOC2)c1)c1cc(-c2ccccn2)on1 (single isomer, unassigned) [Compound 3-21, 5-(pyridin-2-yl)-N-(1-(tetrahydrofuran-3-yl)-1H-pyrazol-4-yl)isoxazole-3-carboxamide] |  | +++ (+++ refers to >150% at 1 or 10 μM test compound) |  | + (+ refers to 0% < % activity < 25% at 1 or 10 μM test compound) | ++ (++ refers to 25% < % activity < 50% at 1 or 10 μM test compound) | +++ (+++ refers to >150% at 1 or 10 μM test compound) | 
O=C(Nc1cnn(C2CCOC2)c1)c1cc(-c2cccs2)on1 (single isomer, unassigned) [Compound 3-22, N-(1-(tetrahydrofuran-3-yl)-1H-pyrazol-4-yl)-5-(thiophen-2-yl)isoxazole-3-carboxamide] |  | ++ (++ refers to 125% < % activity < 150% at 1 or 10 μM test compound) | > 150 | + (+ refers to 0% < % activity < 25% at 1 or 10 μM test compound) | ++ (++ refers to 25% < % activity < 50% at 1 or 10 μM test compound) |  | 
O=C(Nc1cnn(C2CCOC2)c1)c1cc(-c2cccs2)on1 (single isomer, unassigned) [Compound 3-23, N-(1-(tetrahydrofuran-3-yl)-1H-pyrazol-4-yl)-5-(thiophen-2-yl)isoxazole-3-carboxamide] |  | +++ (+++ refers to >150% at 1 or 10 μM test compound) |  | ++ (++ refers to 25% < % activity < 50% at 1 or 10 μM test compound) | +++ (+++ refers to % activity >50 % at 1 or 10 μM test compound) | +++ (+++ refers to >150% at 1 or 10 μM test compound) | 
O=C(Nc1cnn(Cc2ccc(C(F)(F)F)cc2)c1)c1cc(-c2ccco2)on1 [Ceapin-A8, reference compound] |  | + (+ refers to 100% < % activity < 125% at 1 or 10 μM) |  |  |  | − (− refers to 75% < % activity < 100% at 1 or 10 μM) | ATF6 activity @ 1 μM [%] ([1]; 1 μM test compound, in absence of ER stress, 8 hr, Table 3-2): + (+ refers to 0% < % activity < 25% at 1 or 10 μM test compound); ATF6 activity @ 1 μM [%] ([2]; Table 2-2): + (+ refers to 100% < % activity < 125% at 1 or 10 μM); ATF6 activity @ 10 μM [%] ([2]; Table 2-2): − (− refers to 75% < % activity < 100% at 1 or 10 μM)
CC(c1c(Cl)cccc1Cl)n1cc(C#Cc2nnc(-c3ccccn3)s2)cn1 (stereo not shown) [Compound 2-20, 2-((1-(1-(2,6-dichlorophenyl)ethyl)-1H-pyrazol-4-yl)ethynyl)-5-(pyridin-2-yl)-1,3,4-thiadiazole] |  |  |  |  |  |  | activation at 1 µM ([1]; 1 μM test compound, in absence of ER stress, Table 3-2, read-out: ATF6 activity @ 1 μM [%]): 0 to 25%; activation at 10 µM ([1]; in absence of ER stress, Table 3-2, read-out: ATF6 activity @ 10 μM [%]): 0 to 25%; activity at 1 µM ([2]; Table 2-2): 75 to 100%; activity at 10 µM ([2]; Table 2-2): 100 to 125%
O=C(Nc1cnn(C2CCCC2)c1)c1cc(-c2ccco2)on1 [Compound 3-1, N-(1-cyclopentyl-1H-pyrazol-4-yl)-5-(furan-2-yl)isoxazole-3-carboxamide] | 0 to 25 |  | > 150 |  |  |  | activation at 10 µM [1, 4]: 0 to 25%; activity at 1 µM ([2]; Table 2-3): > 150%
